# Results published in article PMC9235892 (Virulence, 2022).
# Several values for one entry are separate records, joined by “and”; a condition that tells them apart may be missing. Equal values may be shown once. Read-outs that look alike come from different tables or passages of the source.
# Assays:
# [1] = test system: SARS-CoV-2; assay: microbe, parasite or virus in culture; format: cell-based; settings: for EC50: Severe acute respiratory syndrome coronavirus 2, 60 h, read-out: half maximal effective concentration (EC50), 50% CPE inhibition
# [2] = test system: SARS-CoV-2; format: cell-based
# [3] = test system: Vero CCL81 cells
# [4] = test system: SARS-CoV-2; format: cell-based; remark: listed apart in the source
# [5] = test system: SARS-CoV-2; format: cell-based; remark: listed apart in the source
# [6] = test system: SARS-CoV-2; format: cell-based; remark: listed apart in the source
# [7] = test system: SARS-CoV-2; format: cell-based; remark: listed apart in the source
# [8] = test system: SARS-CoV-2; format: cell-based; remark: listed apart in the source
# [9] = test system: HEK293T; assay: MTT assay in HEK293T; format: cell-based, human; settings: 10 µM and 32 µM
# [10] = test system: HuH7.5; assay: MTT assay in HuH7.5; format: cell-based, human; settings: HuH7.5, 10 µM and 32 µM
# [11] = test system: Caco-2; assay: MTT assay in Caco-2; format: cell-based, human; settings: Caco-2, 10 µM and 32 µM
# [12] = test system: Calu-3; assay: MTT assay in Calu-3; format: cell-based, human; settings: Calu-3, 10 µM and 32 µM
# [13] = test system: SARS-CoV-2 B.1; format: cell-based
# [14] = test system: SARS-CoV-2
# [15] = test system: intracellular cholesterol traffic; format: cell-based, African green monkeys
# [16] = test system: HEK293T cells; format: cell-based, human
# [17] = Pharmacokinetics in mice; format: in vivo, CD1 mice
# Description: In vivo pharmacokinetics assessment of LNB167 was performed at the Center of Innovation and Preclinical Studies (CIEnP, Brazil) under contract. LNB167 was tested in adult male CD1 mice (n = 5) bred under Specific Pathogen Free conditions at doses of 60 mg/kg (p.o.) or 6 mg/kg (I.V.). Results were reported according to ARRIVE (Animal Research Reporting In Vivo Experiments) [[22–24]]. The pharmacokinetics parameters were determined using the software Phoenix® WinNonlin® (version 7.0).
# [18] = Potential toxicity of LNB167 in mice; format: in vivo, FVB male mice; settings: oral gavage
# Description: Adult FVB male mice bred and maintained at the Animal Facility of LOM at LNBio/CNPEM were weighed and divided into three groups (n = 5): vehicle (5% ethanol, 45% PEG400, 5% TWEEN®80, 45% saline), LNB167 60 mg/kg, and LNB167 300 mg/kg. Mice received one dose daily for 6 days by oral gavage. Animals were weighed and monitored daily for signs of potential compound toxicity including loss of movement, ruffled fur, ear position, eye shape, and death.
# [19] = test system: SARS-CoV-2; settings: in vivo
smiles,measurement,setting,value
C[C@]12CC[C@H](OCCS(=O)(=O)N3CCOCC3)CC1CCC1C2CC[C@]2(C)C(=O)CCC12 (some centres unmarked) [FFNBio41],EC50,[1],5 µM
same,effect on viral load assessed by plaque assay,[2],no effect
same,"toxicity, MTT assay",[3],not cytotoxic
CN1CCN(C[C@H](O)CO[C@H]2CC[C@@]3(C)C(CCC4C3CC[C@]3(C)C(=O)CCC43)C2)CC1 (some centres unmarked) [LNB167],EC50,[1],0.9 µM
same,effect on viral load assessed by plaque assay,[2],potent inhibition of SARS-CoV-2 replication
same,fold reduction in infectious virus (plaque assay) vs vehicle-treated control,[2],1000 fold
same,fold reduction in viral RNA levels (RT-qPCR) vs vehicle-treated control,[4],~100 fold
same,effect on levels of viral RNA (RT-qPCR),[5],did not reduce levels of viral RNA
same,"fold reduction in viral load (RT-qPCR, viral RNA)",[6],≤ 1000 fold
same,effect on SARS-CoV-2 viral load,[7],no effect
same,effect on SARS-CoV-2 viral load,[8],no effect
same,"toxicity, MTT assay",[9],not toxic
same,"toxicity, MTT assay",[10],not toxic
same,"toxicity, MTT assay",[11],not toxic
same,"toxicity, MTT assay",[12],not toxic
same,"fold reduction in infectious viral progeny (plaque assay), time of addition",[13],up to 100 fold
same,"fold reduction in viral load (RT-qPCR), time of addition",[13],approximately 10 fold
same,time of addition after infection giving maximum antiviral activity,[13],≤ 8 h
same,virucidal activity against SARS-CoV-2,[14],neither LNB167 nor LNB169 were virucidal
same,"cholesterol distribution, filipin III staining",[15],formation of puncta that were identical to those observed in U18666A-treated cells
same,"up-regulated pathways (RNASeq), SARS-CoV-2-infected cells",[16],upregulation of multiple pathways involving metabolism and biosynthesis of both membrane lipids and cholesterol
same,"up-regulated pathways (RNASeq), non-infected cells",[16],upregulation of membrane lipids and cholesterol metabolic and biosynthetic pathways
same,bioavailability,"[17]; male, CD1, mouse, plasma, oral, 60 mg/kg p.o. (6 mg/kg I.V.)",66.3%
same,half-life,"[17]; male, CD1, mouse, plasma, po, single dose of 60 mg/kg given orally",160 min
same,volume of distribution,[17]; single dose of 60 mg/kg given orally,63.17 L/kg
same,maximum plasma concentration,"[17]; single dose of 60 mg/kg given orally, 60 mg/kg",498.69 ng/ml and 1.1 µM
same,signs of toxicity,[18]; 60 mg/Kg once a day for 6 days,No signs of toxicity
same,signs of toxicity,[18]; 300 mg/Kg once a day for 6 days,moderate weight loss and ruffled fur
same,"toxicity, MTT assay","[3]; 10 µM and 32 µM, Vero CCL81",not cytotoxic
same,viral load recovered from infected mouse lungs (plaque assay or RT-qPCR),[19],did not reduce the viral load
same,histological analysis of lung sections,[19]; mouse,alterations in tissue architecture that were more pronounced in the context of SARS-CoV-2 infection
same,protection from disease development induced by SARS-CoV-2,[19]; mouse,did not protect from disease development
same,average weight loss,"[19]; mouse, 120 mg/kg",15%
"C[C@]12CC[C@H](O)CC1CCC1C2CC[C@]2(C)C(=O)[C@H](Br)CC12 (some centres unmarked) [16a-bromoepiandrosterone, reference compound]",cytoprotective activity against SARS-CoV-2,[1],did not display cytoprotective activity
C[C@]12CC[C@H](OC[C@@H](O)CN3CCOCC3)CC1CCC1C2CC[C@]2(C)C(=O)CCC12 (some centres unmarked) [LNB166],"half maximal effective concentration (EC50), 50% CPE inhibition",[1],mid micromolar range
"CCN(CC)CCO[C@H]1CC[C@@]2(C)C(=CC[C@@H]3[C@@H]2CC[C@]2(C)C(=O)CC[C@@H]32)C1.Cl [U18666A, reference compound]","cholesterol distribution, filipin III staining",[15],formation of puncta inside cells
C[C@]12CC[C@H](OC(=O)CN3CCOCC3)CC1CCC1C2CC[C@]2(C)C(=O)CCC12 (some centres unmarked) [LNB149],"half maximal effective concentration (EC50), 50% CPE inhibition",[1],mid micromolar range
"CCN(CC)CCCC(C)Nc1ccnc2cc(Cl)ccc12 (centres unmarked) [Chloroquine, reference compound]",EC50,[1],5.9 µM
CN1CCN(CCC(=O)O[C@H]2CC[C@@]3(C)C(CCC4C3CC[C@]3(C)C(=O)CCC43)C2)CC1 (some centres unmarked) [LNB171],"half maximal effective concentration (EC50), 50% CPE inhibition",[1],mid micromolar range
same,effect on viral load assessed by plaque assay,[2],no effect
same,effect on viral load assessed by RT-qPCR,[4],no effect
same,"toxicity, MTT assay",[3],not cytotoxic
CN1CCN(CC(=O)O[C@H]2CC[C@@]3(C)C(CCC4C3CC[C@]3(C)C(=O)CCC43)C2)CC1 (some centres unmarked) [FFNBio42],EC50,[1],4.7 µM
same,fold reduction in infectious virus (plaque assay) vs vehicle-treated control,[2],10 fold
same,fold reduction in viral RNA levels (RT-qPCR) vs vehicle-treated control,[4],10 fold
same,"toxicity, MTT assay",[3],not cytotoxic
C[C@]12CC[C@H](OC[C@H](O)CN3CCOCC3)CC1CCC1C2CC[C@]2(C)C(=O)CCC12 (some centres unmarked) [LNB168],"half maximal effective concentration (EC50), 50% CPE inhibition",[1],mid micromolar range
CN1CCN(C[C@@H](O)CO[C@H]2CC[C@@]3(C)C(CCC4C3CC[C@]3(C)C(=O)CCC43)C2)CC1 (some centres unmarked) [LNB169],EC50,[1],3.8 µM
same,effect on viral load assessed by plaque assay,[2],potent inhibition of SARS-CoV-2 replication
same,fold reduction in infectious virus (plaque assay) vs vehicle-treated control,[2],1000 fold
same,fold reduction in viral RNA levels (RT-qPCR) vs vehicle-treated control,[4],~100 fold
same,effect on levels of viral RNA (RT-qPCR),[5],did not reduce levels of viral RNA
same,"fold reduction in viral load (RT-qPCR, viral RNA)",[6],approximately 100 fold
same,effect on SARS-CoV-2 viral load,[7],no effect
same,effect on SARS-CoV-2 viral load,[8],no effect
same,"toxicity, MTT assay",[9],not toxic
same,"toxicity, MTT assay",[10],not toxic
same,"toxicity, MTT assay",[11],not toxic
same,"toxicity, MTT assay",[12],not toxic
same,"fold reduction in infectious viral progeny (plaque assay), time of addition",[13],up to 100 fold
same,"fold reduction in viral load (RT-qPCR), time of addition",[13],approximately 10 fold
same,time of addition after infection giving maximum antiviral activity,[13],≤ 8 h
same,virucidal activity against SARS-CoV-2,[14],neither LNB167 nor LNB169 were virucidal
same,"toxicity, MTT assay","[3]; 10 µM and 32 µM, Vero CCL81",not cytotoxic
"C[C@]12CC[C@H](O)C[C@@H]1CC[C@@H]1[C@@H]2CC[C@]2(C)C(=O)CC[C@@H]12 [Epiandrosterone, reference compound]",cytoprotective activity against SARS-CoV-2,[1],did not display cytoprotective activity
